Biological target: BTK kinase (Homo sapiens (Human), UniProt Q06187)
Test: BTK kinase experiment (ADP-Glo)
Type: biochemical
Settings: 2 μM ATP, PolyE4Y1 substrate, 30 minutes pre-incubation
Method: BTK kinase, PolyE4Y1 substrate and Kinase assay buffer III were purchased from Signalchem; ADP-Glo Kinase Assay was purchased from Promega; Nivo multi-label analyzer (PerkinElmer).
1× buffer preparation (which was prepared and used immediately): Kinase assay buffer III was diluted with ddH2O to 1× assay buffer for later use.
The compound to be tested was diluted with 100% DMSO to 10 μM as the first concentration, and followed by a 5-fold dilution to the 8th concentration using a multi-channel pipette, i.e., it was diluted from 10 μM to 0.128 nM.
Each gradient of the compound to be tested was diluted into a working solution with 5% DMSO using 1× buffer, 1 μL/well was added to the corresponding well, and a double-replicate well experiment was set up. 2 μL of BTK enzyme (4 ng) was add to each well and incubating at 25° C. for 30 minutes. After the incubation was completed, 2 μL of a mixture of substrate and ATP (2 μM ATP, 0.2 μg/μL PolyE4Y1) was added to each well and incubating at 25° C. for 120 minutes. At this point, the final concentration gradient of the compound was diluted from 100 nM to 0.00128 nM. After the reaction was completed, 5 μL of ADP-Glo reagent was added to each well, and the reaction continued at 25° C. for 40 minutes. After the reaction was completed, 10 μL of kinase detection reagent was added to each well. After reacting at 25° C. for 30 minutes, PerkinElmer Nivo multi-label analyzer was used to read the chemiluminescence, and the integration time was 0.5 seconds.
Raw data was converted into inhibition rate using the equation: (Sample−Min)/(Max−Min)*100%. The IC50 value could then be derived by performing a curve fit using four-parameter (which was obtained using the “log(inhibitor) vs. response-Variable slope” mode in GraphPad Prism).

Chain of BTK kinase (Q06187 whole entry): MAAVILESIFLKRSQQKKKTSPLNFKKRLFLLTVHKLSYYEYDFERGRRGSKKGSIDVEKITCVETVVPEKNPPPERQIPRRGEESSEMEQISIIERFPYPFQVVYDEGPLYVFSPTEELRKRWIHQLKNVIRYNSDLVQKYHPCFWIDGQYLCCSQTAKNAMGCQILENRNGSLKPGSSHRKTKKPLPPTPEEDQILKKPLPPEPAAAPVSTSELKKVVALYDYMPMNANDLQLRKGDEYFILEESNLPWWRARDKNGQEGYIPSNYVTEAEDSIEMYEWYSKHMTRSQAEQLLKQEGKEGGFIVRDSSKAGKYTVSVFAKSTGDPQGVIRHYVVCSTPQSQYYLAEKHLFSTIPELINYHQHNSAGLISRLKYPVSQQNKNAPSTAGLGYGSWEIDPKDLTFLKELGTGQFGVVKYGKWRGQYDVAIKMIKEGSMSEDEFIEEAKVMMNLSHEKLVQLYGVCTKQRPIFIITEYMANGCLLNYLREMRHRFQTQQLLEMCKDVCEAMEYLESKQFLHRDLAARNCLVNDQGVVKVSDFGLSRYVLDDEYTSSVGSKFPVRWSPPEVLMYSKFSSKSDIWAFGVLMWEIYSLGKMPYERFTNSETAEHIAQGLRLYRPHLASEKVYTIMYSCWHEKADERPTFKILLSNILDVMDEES

| IC50 [nM] | SMILES |
| --- | --- |
| 0.71 | C=CC(=O)N1CCC[C@@H](n2c(=O)n(-c3ccc(CNC(=O)c4cc(F)ccc4OC)cc3)c3c(N)nccc32)C1 [Compound 001] |
| 2.46 | COc1cccc(Oc2ccc(-n3c(=O)n([C@@H]4CCCN(C(=O)/C=C/CF)C4)c4ccnc(N)c43)cc2)c1F [Compound 004] |
| 2.85 | Nc1nccc2c1n(-c1ccc(Oc3c(F)cccc3F)cc1)c(=O)n2[C@@H]1CCCN(C(=O)/C=C/CF)C1 [Compound 005] |
| 13.6 | Nc1nccc2c1n(-c1ccc(Oc3ccc(Br)cn3)cc1)c(=O)n2[C@@H]1CCCN(C(=O)/C=C/CF)C1 [Compound 006] |
| 16 | Nc1nccc2c1n(-c1ccc(Oc3ccc(Cl)cn3)cc1)c(=O)n2[C@@H]1CCCN(C(=O)/C=C/CF)C1 [Compound 007] |
| 36.5 | Nc1nccc2c1n(-c1ccc(Oc3ccc(F)cn3)cc1)c(=O)n2[C@@H]1CCCN(C(=O)/C=C/CF)C1 [Compound 008] |
| 2.8 | Nc1nccc2c1n(-c1ccc(Oc3ccccc3)c(F)c1)c(=O)n2[C@@H]1CCCN(C(=O)/C=C/CF)C1 [Compound 009] |
| 3.04 | Cc1cc(-n2c(=O)n([C@@H]3CCCN(C(=O)/C=C/CF)C3)c3ccnc(N)c32)ccc1Oc1ccccc1 [Compound 010] |
| 1.57 | Nc1nccc2c1n(-c1ccc(Oc3ccccc3)c(Cl)c1)c(=O)n2[C@@H]1CCCN(C(=O)/C=C/CF)C1 [Compound 011] |

Reference: patent US20240217973A1, “IMIDAZOPYRIDINE COMPOUNDS AND USE THEREOF” (MEDSHINE DISCOVERY INC., priority 2021, published 2024)
